These results are taken from patent US6274615A, “Method for delaying the onset of alheimer's disease and for treatment or delaying the onset of other amyloidosis-related diseases/disorders” (South Alabama Medical Science Foundation, priority 1999, dated 2001).

“Also recorded” adds a separate entry of the source. Like-named read-outs stand apart in the source and are kept apart here.

Data set [1] concerns the target T1, Aβ1-40 (Homo sapiens, UniProt P05067).
T1 construct: aggregates to fibrils
Put plainly: Electron microscopy of Aβ1-40 amyloid fibril formation. It is filed as biochemical. From the text:
Bar is 200 nm. […] EM grids were extensively and carefully examined, and a negative result was only documented when fibrils were totally absent from the grids.

The target in data set [2] is T2, Aβ1-42 (Homo sapiens, UniProt P05067).
T2 construct: aggregates to fibrils
T2 sequence (P05067 672-713): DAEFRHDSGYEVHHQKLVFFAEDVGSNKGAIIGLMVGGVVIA
Put plainly: Circular dichroism spectroscopy of Aβ1-42 (secondary structure). To be noted: for structural changes (secondary structure): Aβ1-42 250 μM + 100 μM compound, time 0 and 4 h; for amount of β-sheet structures: Aβ1-42 250 μM + melatonin 100 μM. As to the method:
(§1) The corresponding percentages of the different secondary structure motifs are shown for Aβ1-40 at time 0 in (FIG. 1C) and 24 hours (FIG. 1D) and for Aβ1-42 at time 0 (FIG. 1G) and 4 hours (FIG. 1H). An average of 40 scans/independent experimental condition was obtained. An independent experiment yielded qualitatively similar data.
(§2) Peptides Aβ1-40 and Aβ1-42 were synthesized in the W. M. Keck Foundation (Yale University, Conn.), and their purity was evaluated by amino acid sequence and laser […] mass spectrometry as described (Soto et al., 1996).
(§3) Spectra in the far ultraviolet light (190-250 nm) were recorded at various time intervals with a Jasco-720 spectropolarimeter as described (Soto et al., 1996) using a cell path of 0.01 cm. […] 40 scans/experimental condition were obtained at 0.2 nm intervals over the wavelength range 190-250 nm. The data were analyzed by the Lincomb algorithm (Perczel et al., 1992) to obtain the percentages of the different secondary structure motifs.
(In general: Circular dichroism is the unequal absorption of left and right circularly polarised light.)

Data set [3] has as its target T1, Aβ1-40. Put plainly: Circular dichroism spectroscopy of Aβ1-40 (secondary structure). The following applies: for structural changes (secondary structure) / change of random conformation / change of β-sheet content: Aβ1-40 250 μM + 100 μM compound; for structural changes (secondary structure): 24 h; for change of random conformation / change of β-sheet content: time 0. As to the method:
as §1, §2, §3

Data set [4] relates to circadian disorders due to jet lag. The following applies: oral, 0.25-10 mg; Arendt et al., 1987; cited from earlier work.
In a further data set the test system is microtubular components. To be noted: Benitez-King et al., 1993; cited from earlier work.
The conditions of data set [5]: cited from earlier work.
Data set [6] concerns cultured neuroblastoma cells. The following applies: cytotoxic fragment of amyloid β-protein; Pappolla et al., 1997; cited from earlier work.
For data set [7] the following is noted: Tan et al., 1993, cited from earlier work.
Data set [8] relates to intrinsic cellular antioxidant defenses. The following applies: Huerto-Delgadillo et al., 1994; cited from earlier work.
Data set [9] deals with T2, Aβ1-42. Put plainly: Electron microscopy of Aβ1-42 amyloid fibril formation. It is filed as biochemical. As to the method:
The formation of amyloid fibrils was monitored at 0, 2, and 6 h.

Data set [10] has as its target T1, Aβ1-40. The experiment in a line: 1H NMR titration of Aβ1-40 with melatonin (binding).
Description: The solution conditions for the NMR and CD studies were similar, except that deuterated water (D2 O) in phosphate buffer was used in the NMR study. All ^1 H NMR spectra were obtained at 600 MHz using a Varian UnityPlus-600 spectrometer, and the data were processed using the FELIX program (version 95.0, Biosym, Inc.). The NMR solutions were prepared in D2 O (0.6 ml) with sodium phosphate buffer (5 mM, pH 7.5), perdeuterated Na2 EDTA (0.5 mM), NaN3 (0.05 mM), and 3-(trimethylsilyl) propionate-2,2,3,3-d4 (0.05 mM), the last of which serves as a internal chemical shift reference at 0 ppm. The NMR measurements were performed at 10° C. and the residual proton absorption of D2 O was suppressed by low power irradiation during the recycle delay. For all spectra, 128 scans were required with a total recycle delay of 4.2 s, which included an acquisition time and recycle delay of 2.2 and 2.0 s, respectively. The digital resolution of the acquired data was 0.24 Hz/pt, which was reduced to 0.12 Hz/pt by zero-filling the data once before processing. To further improve the resolution, before Fourier transformation spectra were multiplied by a Lorentzian-to-Gaussian weighting factor. This experiment was duplicated on two different days.
The subject of another data set is calmodulin. To be noted: Benitez-King et al., 1993; cited from earlier work.
Where [11] appears, read: Aβ1-40, incubated for up to 48 h.

T1 sequence (P05067 672-711): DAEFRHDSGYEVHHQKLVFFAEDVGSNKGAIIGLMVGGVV

With `CC(=O)NCCc1c[nH]c2ccc(O)cc12` [NAT, 5-hydroxy-N-acetyl-tryptamine], the Aβ1-40 fibril formation result at Aβ1-40 [1] (setting [11]) is “Well formed amyloid fibrils are easily recognized; also recorded: fibrils were abundant and easily identifiable”. In addition, at Aβ1-42 [2], the “structural changes (secondary structure)” value is reported as “not elicited”. Besides, on Aβ1-40 [3], the “structural changes (secondary structure)” value is given as “no structural changes”, the “change of random conformation” value is “This effect was not observed” and the “change of β-sheet content” value was “This effect was not observed”.

With `CC(C)(C)[N+]([O-])=Cc1ccccc1` [PBN, N-t-butyl-α-phenylnitrone], the Aβ1-40 fibril formation entry at Aβ1-40 [1] (setting [11]) is “Well formed amyloid fibrils are easily recognized; also recorded: fibrils were abundant and easily identifiable”. Besides, the Aβ1-40 fibril formation result on Aβ1-40 [1] (PBN 10, 100, and 200 μM, 48 h) is reported as “Fibrils were abundant in all these tubes”. In addition, at Aβ1-42 [2], the “structural changes (secondary structure)” value is recorded as “not elicited”. At Aβ1-40 [3], the “structural changes (secondary structure)” value is recorded as “only small effects”, the “change of random conformation” value is reported as “This effect was not observed” and the “change of β-sheet content” value was “This effect was not observed”.

Regarding `COc1ccc2[nH]cc(CCNC(C)=O)c2c1` [melatonin, N-[2-(5-methoxy-1H-indol-3-yl)ethyl] acetamide], in data set [4], the “treatment of circadian disorders due to jet lag” value is listed as “used successfully to treat circadian disorders due to jet lag”. In addition, the “concentration of melatonin inhibiting fibril formation in all tubes” value at Aβ1-40 [1] (250 μM Aβ1-40, 48 h) was “above 10 μM”. The Aβ1-40 fibril formation entry is “only amorphous material” at Aβ1-40 [1] (250 μM Aβ1-40 plus 100 μM melatonin) and “Fibrils were not formed; also recorded: no fibrils were detected” at Aβ1-40 [1] (setting [11]). Further, the “amount of β-sheet structures” value on Aβ1-42 [2] (4 h of incubation) came out at 59%; at Aβ1-42 [2] (time 0) it was 65%. Besides, the “interaction with microtubular components” value with microtubular components is “interacts”. In addition, the “change of random conformation” value on Aβ1-40 [3] was “immediate increase”. Besides, the “change of β-sheet content” value at Aβ1-40 [3] was “markedly diminished”. The β-sheet content on Aβ1-40 [3] (Aβ1-40 250 μM + melatonin 100 μM, 24 h of incubation) is 24%. In [5], the lipid solubility result is listed as “lipid soluble”. Moreover, the “prevention of cell death” value in [6] is listed as “effective in preventing death of cultured neuroblastoma cells”. For the same compound, the “prevention of intracellular Ca^+2 increases” value in data set [6] is “effective in preventing”. In addition, in data set [6], the “prevention of oxidative damage” value is “effective in preventing”. Moreover, the “crossing of the blood-brain barrier” value in data set [7] is recorded as “passes easily across the blood-brain barrier; also recorded: crosses the blood-brain barrier with ease”; in [7] (listed as Melatonin), “rapidly crosses the blood brain barrier”. Also, the “activity of intrinsic cellular antioxidant defenses” value in data set [8] is “increase the activity”. The Aβ1-42 fibril formation result is “only amorphous material” at Aβ1-42 [9] (250 μM Aβ1-42, 2 and 6 h); “Well formed amyloid fibrils are easily recognized in FIG. 3A, but not in FIG. 3B” at Aβ1-42 [9] (6 hrs., melatonin 100 μm (so in the source)). Further, the “inhibition of Aβ1-42 fibril formation” value at Aβ1-42 [9] (melatonin 100 nM, 1 μM, 10 μM, 100 μM, and 200 μM) was “effective to inhibit fibril formation”. The “site of binding on Aβ” value on Aβ1-40 [10] (NMR shifts with varied melatonin concentrations) was “not localized to a particular His site on Aβ”. Besides, the “exchange regime of binding” value at Aβ1-40 [10] (no line broadening or separate peaks for bound and free states) is “fast exchange limit”. Besides, the interaction with calmodulin entry with calmodulin is on record as “interacts with calmodulin”.
